According to patent publication US20250263459A1, “STABILIZED PACAP PEPTIDE” (SENJU PHARMACEUTICAL CO., LTD., priority 2019, published 2025):
One block for each molecule: values may come before it. Starred links: 1 amine or outer side, 2 acyl side, 3 side chain; linkers in the order of their positions; H or OH if unused. Non-standard residues stand in square brackets, D forms with d. Residues, ends and D or L forms follow the SMILES beside them. No end group written: not given here. *: point of attachment. Ala(1H-tetrazol-5-yl) = N[C@@H](Cc1nnn[nH]1)C(=O)O; Tz = tetrazole-substituted aspartic acid; X1 = O=C([C@@H](Cc1nnn[nH]1)N[*:1])[*:2]; X3 = O=C([C@H](CCc1nnn[nH]1)N[*:1])[*:2]; Isovaleryl = CC(C)CC(=O)*; Nle = CCCC[C@H](N)C(=O)O; Propionyl = CCC(=O)*

How the values were obtained:
[1] = Stability test 1: survival rate of peptide in phosphate buffer (pH 7.0) after storage, HPLC; type: physicochemical; details: 100 μM peptide, phosphate buffer pH 7.0, 40° C.; for survival rate after correction for water, 40° C. 2 week: 2 weeks (Table 6); for survival rate after correction for water, 40° C. 8 week: 8 weeks (Table 6); for survival rate after correction for water, 40° C. 4 week: 4 weeks (Table 8)
Method: The 1.0 mM peptide solutions were then diluted with phosphate buffer to 100 μM. […] The prepared peptide solutions were incubated for one month or 2 months in a 40° C. thermostatic bath to obtain stored samples.
Using the total weight of the aqueous peptide solution and storage vessel as the specimen weight, measurements were recorded as the specimen weights before storage and the specimen weights after storage under different storage conditions. The empty weight of the storage vessel was also measured, and the moisture permeability was determined by the following formula.
After stirring the standard sample and the stored samples with a vortex mixer, each peptide solution was transferred to an HPLC vial (Deactivated Qsert vial by Waters Co.). Reverse-phase HPLC (HPLC system: Prominence by Shimadzu Corp.) was conducted under the conditions shown in Table 3 below for analysis of the peptide solutions, and chromatograms were obtained.
The peak area value for the peptide in the chromatogram was calculated, and the survival rate (survival rate before correction for water) was calculated using formula (2). The survival rate after correction for water was also calculated from the survival rate before correction for water using formula (3) to take into account the permeability of the container.
Peptide solutions prepared by the same method as [Measuring sample preparation 1] for the peptides synthesized in Example 2 (peptides 13 to 16) were incubated for 2 weeks and 8 weeks in a thermostatic bath at 40° C. to obtain stored samples.
Peptide solutions prepared by the same method as [Measuring sample preparation 1] for the peptides synthesized in Example 2 (peptides 17 to 21) were incubated for 4 weeks in a thermostatic bath at 40° C. to obtain stored samples.
A peptide solution prepared by the same method as [Measuring sample preparation 1] for peptide 22 synthesized in Example 2 was incubated for 1 week and 4 weeks in a thermostatic bath at 40° C. to obtain stored samples.

VPAC1 receptor = target: T1, VPAC1 receptor (UniProt P32241 31-457, limits assumed); assay: cell-based or functional assay
T1 sequence (looked up): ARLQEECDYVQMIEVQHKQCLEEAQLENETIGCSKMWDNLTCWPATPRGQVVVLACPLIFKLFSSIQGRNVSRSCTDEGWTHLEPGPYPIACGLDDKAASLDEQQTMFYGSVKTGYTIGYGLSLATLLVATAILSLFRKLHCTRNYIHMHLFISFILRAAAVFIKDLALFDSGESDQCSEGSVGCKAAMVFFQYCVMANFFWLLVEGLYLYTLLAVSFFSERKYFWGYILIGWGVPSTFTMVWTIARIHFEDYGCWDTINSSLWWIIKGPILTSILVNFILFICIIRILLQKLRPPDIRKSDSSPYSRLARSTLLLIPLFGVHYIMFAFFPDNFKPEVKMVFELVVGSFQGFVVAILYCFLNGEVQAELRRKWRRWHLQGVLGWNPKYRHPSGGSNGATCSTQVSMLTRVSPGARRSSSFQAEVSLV

PAC1 receptor = target: T2, PAC1 receptor (UniProt P41586 21-468, limits assumed); assay: cell-based or functional assay
T2 sequence (looked up): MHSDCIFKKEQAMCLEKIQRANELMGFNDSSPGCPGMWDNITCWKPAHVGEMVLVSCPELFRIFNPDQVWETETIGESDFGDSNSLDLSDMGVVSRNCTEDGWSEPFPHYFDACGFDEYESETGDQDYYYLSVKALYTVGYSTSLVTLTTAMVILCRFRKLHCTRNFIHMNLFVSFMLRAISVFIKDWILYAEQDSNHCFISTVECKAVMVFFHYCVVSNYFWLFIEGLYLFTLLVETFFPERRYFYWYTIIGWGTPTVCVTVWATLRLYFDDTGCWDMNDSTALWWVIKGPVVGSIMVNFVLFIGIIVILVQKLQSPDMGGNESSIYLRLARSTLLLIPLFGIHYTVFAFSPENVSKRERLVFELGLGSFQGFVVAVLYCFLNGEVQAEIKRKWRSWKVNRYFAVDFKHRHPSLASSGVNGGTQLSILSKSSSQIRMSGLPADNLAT

Molecule: CCCC[C@H](NC(=O)[C@H](CCC(N)=O)NC(=O)[C@H](CCCCN)NC(=O)[C@H](CCCNC(=N)N)NC(=O)[C@H](Cc1ccc(O)cc1)NC(=O)[C@H](CCCNC(=N)N)NC(=O)[C@H](CO)NC(=O)[C@H](Cc1ccc(O)cc1)NC(=O)[C@H](CO)NC(=O)[C@@H](Cc1nnn[nH]1)NC(=O)[C@@H](NC(=O)[C@H](Cc1ccccc1)NC(=O)[C@@H](NC(=O)CNC(=O)[C@@H](Cc1nnn[nH]1)NC(=O)[C@H](CO)NC(=O)[C@@H](N)Cc1c[nH]cn1)[C@@H](C)CC)[C@@H](C)O)C(=O)N[C@@H](C)C(=O)N[C@H](C(=O)N[C@@H](CCCCN)C(=O)N[C@@H](CCCCN)C(=O)N[C@@H](Cc1ccc(O)cc1)C(=O)N[C@@H](CC(C)C)C(=O)N[C@@H](C)C(=O)N[C@@H](C)C(=O)N[C@H](C(=O)N[C@@H](CC(C)C)C(N)=O)C(C)C)C(C)C [Peptide 13, HSTz(D)GI FTTz(D)SY SRYRK QNIAVK KYLAA VL] (H-HS[X1]GIFT[X1]SYSRYRKQ[Nle]AVKKYLAAVL-NH2)
survival rate after correction for water, 40° C. 2 week [1]: 96.2% | survival rate after correction for water, 40° C. 8 week [1]: 84.6%

Molecule: CCCC[C@H](NC(=O)[C@H](CCC(N)=O)NC(=O)[C@H](CCCCN)NC(=O)[C@H](CCCNC(=N)N)NC(=O)[C@H](Cc1ccc(O)cc1)NC(=O)[C@H](CCCNC(=N)N)NC(=O)[C@H](CO)NC(=O)[C@H](Cc1ccc(O)cc1)NC(=O)[C@H](CO)NC(=O)[C@@H](Cc1nnn[nH]1)NC(=O)[C@@H](NC(=O)[C@H](Cc1ccccc1)NC(=O)[C@@H](NC(=O)CNC(=O)[C@H](Cc1nnn[nH]1)NC(=O)[C@H](CO)NC(=O)[C@@H](N)Cc1c[nH]cn1)[C@@H](C)CC)[C@@H](C)O)C(=O)N[C@@H](C)C(=O)N[C@H](C(=O)N[C@@H](CCCCN)C(=O)N[C@@H](CCCCN)C(=O)N[C@@H](Cc1ccc(O)cc1)C(=O)N[C@@H](CC(C)C)C(=O)N[C@@H](C)C(=O)N[C@@H](C)C(=O)N[C@H](C(=O)N[C@@H](CC(C)C)C(N)=O)C(C)C)C(C)C [Peptide 14, HSTzGI FTTz(D)SY SRYRK QNIAVK KYLAA VL] (H-HS[Ala(1H-tetrazol-5-yl)]GIFT[X1]SYSRYRKQ[Nle]AVKKYLAAVL-NH2)
survival rate after correction for water, 40° C. 2 week [1]: 96.3% | survival rate after correction for water, 40° C. 8 week [1]: 84.5%

Molecule: CCCC[C@H](NC(=O)[C@H](CCC(N)=O)NC(=O)[C@H](CCCCN)NC(=O)[C@H](CCCNC(=N)N)NC(=O)[C@H](Cc1ccc(O)cc1)NC(=O)[C@H](CCCNC(=N)N)NC(=O)[C@H](CO)NC(=O)[C@H](Cc1ccc(O)cc1)NC(=O)[C@H](CO)NC(=O)[C@H](Cc1nnn[nH]1)NC(=O)[C@@H](NC(=O)[C@H](Cc1ccccc1)NC(=O)[C@@H](NC(=O)CNC(=O)[C@@H](Cc1nnn[nH]1)NC(=O)[C@H](CO)NC(=O)[C@@H](N)Cc1c[nH]cn1)[C@@H](C)CC)[C@@H](C)O)C(=O)N[C@@H](C)C(=O)N[C@H](C(=O)N[C@@H](CCCCN)C(=O)N[C@@H](CCCCN)C(=O)N[C@@H](Cc1ccc(O)cc1)C(=O)N[C@@H](CC(C)C)C(=O)N[C@@H](C)C(=O)N[C@@H](C)C(=O)N[C@H](C(=O)N[C@@H](CC(C)C)C(N)=O)C(C)C)C(C)C [Peptide 15, HSTz(D)GI FTTzSY SRYRK QNIAVK KYLAA VL] (H-HS[X1]GIFT[Ala(1H-tetrazol-5-yl)]SYSRYRKQ[Nle]AVKKYLAAVL-NH2)
survival rate after correction for water, 40° C. 2 week [1]: 95.6% | survival rate after correction for water, 40° C. 8 week [1]: 81.3%

Molecule: CCCC[C@H](NC(=O)[C@H](CCC(N)=O)NC(=O)[C@H](CCCCN)NC(=O)[C@H](CCCNC(=N)N)NC(=O)[C@H](Cc1ccc(O)cc1)NC(=O)[C@H](CCCNC(=N)N)NC(=O)[C@H](CO)NC(=O)[C@H](Cc1ccc(O)cc1)NC(=O)[C@H](CO)NC(=O)[C@H](CCc1nnn[nH]1)NC(=O)[C@@H](NC(=O)[C@H](Cc1ccccc1)NC(=O)[C@@H](NC(=O)CNC(=O)[C@H](Cc1nnn[nH]1)NC(=O)[C@H](CO)NC(=O)[C@@H](N)Cc1c[nH]cn1)[C@@H](C)CC)[C@@H](C)O)C(=O)N[C@@H](C)C(=O)N[C@H](C(=O)N[C@@H](CCCCN)C(=O)N[C@@H](CCCCN)C(=O)N[C@@H](Cc1ccc(O)cc1)C(=O)N[C@@H](CC(C)C)C(=O)N[C@@H](C)C(=O)N[C@@H](C)C(=O)N[C@H](C(=O)N[C@@H](CC(C)C)C(N)=O)C(C)C)C(C)C [Peptide 16, HSTzGI FTegTzSY SRYRK QNIAVK KYLAA VL] (H-HS[Ala(1H-tetrazol-5-yl)]GIFT[X3]SYSRYRKQ[Nle]AVKKYLAAVL-NH2)
survival rate after correction for water, 40° C. 2 week [1]: 94.4% | survival rate after correction for water, 40° C. 8 week [1]: 80.3%

Molecule: CCCC[C@H](NC(=O)[C@H](CCC(N)=O)NC(=O)[C@H](CCCCN)NC(=O)[C@H](CCCNC(=N)N)NC(=O)[C@H](Cc1ccc(O)cc1)NC(=O)[C@H](CCCNC(=N)N)NC(=O)[C@H](CO)NC(=O)[C@H](Cc1ccc(O)cc1)NC(=O)[C@H](CO)NC(=O)[C@H](Cc1nnn[nH]1)NC(=O)[C@@H](NC(=O)[C@H](Cc1ccccc1)NC(=O)[C@@H](NC(=O)CNC(=O)[C@H](Cc1nnn[nH]1)NC(=O)[C@H](CO)NC(=O)[C@H](Cc1c[nH]cn1)NC(=O)CC)[C@@H](C)CC)[C@@H](C)O)C(=O)N[C@@H](C)C(=O)N[C@H](C(=O)N[C@@H](CCCCN)C(=O)N[C@@H](CCCCN)C(=O)N[C@@H](Cc1ccc(O)cc1)C(=O)N[C@@H](CC(C)C)C(=O)N[C@@H](C)C(=O)N[C@@H](C)C(=O)N[C@H](C(=O)N[C@@H](CC(C)C)C(N)=O)C(C)C)C(C)C [Peptide 17, HSTzGI FTTzSY SRYRK QNIAVK KYLAA VL] (Propionyl-HS[Ala(1H-tetrazol-5-yl)]GIFT[Ala(1H-tetrazol-5-yl)]SYSRYRKQ[Nle]AVKKYLAAVL-NH2)
survival rate after correction for water, 40° C. 4 week [1]: 59.2%

Molecule: CCCC[C@H](NC(=O)[C@H](CCC(N)=O)NC(=O)[C@H](CCCCN)NC(=O)[C@H](CCCNC(=N)N)NC(=O)[C@H](Cc1ccc(O)cc1)NC(=O)[C@H](CCCNC(=N)N)NC(=O)[C@H](CO)NC(=O)[C@H](Cc1ccc(O)cc1)NC(=O)[C@H](CO)NC(=O)[C@H](Cc1nnn[nH]1)NC(=O)[C@@H](NC(=O)[C@H](Cc1ccccc1)NC(=O)[C@@H](NC(=O)CNC(=O)[C@H](Cc1nnn[nH]1)NC(=O)[C@H](CO)NC(=O)[C@H](Cc1c[nH]cn1)NC(=O)CC(C)C)[C@@H](C)CC)[C@@H](C)O)C(=O)N[C@@H](C)C(=O)N[C@H](C(=O)N[C@@H](CCCCN)C(=O)N[C@@H](CCCCN)C(=O)N[C@@H](Cc1ccc(O)cc1)C(=O)N[C@@H](CC(C)C)C(=O)N[C@@H](C)C(=O)N[C@@H](C)C(=O)N[C@H](C(=O)N[C@@H](CC(C)C)C(N)=O)C(C)C)C(C)C [Peptide 21] (Isovaleryl-HS[Ala(1H-tetrazol-5-yl)]GIFT[Ala(1H-tetrazol-5-yl)]SYSRYRKQ[Nle]AVKKYLAAVL-NH2)
survival rate after correction for water, 40° C. 4 week [1]: 69.0%

EC50, cAMP assay (Hit Hunter cAMP, chemiluminescence RLU) (VPAC1 receptor): 0.111 nM | EC50, cAMP assay (Hit Hunter cAMP, chemiluminescence RLU) (PAC1 receptor): 0.689 nM
Molecule: HS[Tz]GIFA[Tz]AYARYRKQMAVKKYLAAVL-NH2 (also: Tz racemic) [Peptide 3]

EC50, cAMP assay (Hit Hunter cAMP, chemiluminescence RLU) (VPAC1 receptor): 0.113 nM | EC50, cAMP assay (Hit Hunter cAMP, chemiluminescence RLU) (PAC1 receptor): 2.29 nM
Molecule: Ac-HA[Tz]GIFA[Tz]AYSRYRKAAAVKKYLAAVL-NH2 [Peptide 30]

EC50, cAMP assay (Hit Hunter cAMP, chemiluminescence RLU) (VPAC1 receptor): 0.072 nM | EC50, cAMP assay (Hit Hunter cAMP, chemiluminescence RLU) (PAC1 receptor): 2.12 nM
B1: Peptide 28 (peptide)
peptide: HSXGIFAXSYSRYRKALAVKKYLAAVL
modifications: N-terminal Ac; tetrazole-substituted aspartic acid (Tz) at positions 3 and 8; C-terminal amide (NH2)

EC50, cAMP assay (Hit Hunter cAMP, chemiluminescence RLU) (VPAC1 receptor): 0.123 nM | EC50, cAMP assay (Hit Hunter cAMP, chemiluminescence RLU) (PAC1 receptor): 3.28 nM
B2: Peptide 29 (peptide)
peptide: HSXGIFAXSYSRYRKQAAVKKYLAAVL
modifications: N-terminal Ac; tetrazole-substituted aspartic acid (Tz) at positions 3 and 8; C-terminal amide (NH2)
